Experiments:
[1] = tested on: HDAC proteins in HeLa cell lysates; test: Global HDAC inhibition with HeLa cell lysates (HDAC-Glo I/II substrate); assay type: biochemical; conditions: for Deacetylase activity (%): Hela Lysate
Method: HDAC activity was measured using the commercially available HDAC-Glo™ I/II substrate (Promega).
Lysates were prepared according to the reported procedure.^28 HeLa-S3 cells (purchased from Biovest) were lysed in lysis buffer (1×10^9 cells in 10 mL lysis buffer; 50 mM Tris-HCl, pH 8.0, 10% glycerol, 150 mM NaCl, 0.5% Triton X-100, and 1× protease inhibitor cocktail (GenDEPOT)) with rotation at 4° C. for 30 min. Cell debris was removed by centrifugation at 12000 rpm at 4° C. for 30 min. Protein concentration of the supernatant was determined using Bio-Rad protein assay (BioRad, Bradford reagent). Lysates were stored at −80° C.
To measure global HDAC inhibition, HeLa cell lysates (1 μg total protein) were mixed with HDAC-Glo™ buffer in polystyrene 96-well half area white plate (Corning) to a final volume of 12 μL, followed by addition of inhibitors in DMSO (0.5 μL) and incubation for 15 min at room temperature without rocking. An uninhibited control reaction was also included that contained DMSO (0.5 μL). Finally, deacetylase activity was measured using the HDAC-Glo™ assay kit (Promega) as per the manufacturer's protocol. Specifically, the HDAC-Glo™ substrate (1 mL) and developer ([…]) were first premixed to form the HDAC-Glo™ reagents. Then, to monitor deacetylase activity, HDAC-Glo™ reagent (5 μL) and HDAC-Glo™ buffer (7.5 μL) were added to each well (25 μL total volume) and incubated for 35 min at room temperature without rocking. The deacetylase activity was measured as luminescent signal using a GeniosPlus Fluorimeter (Tecan) at optimal gain. The concentrations of inhibitors reported in the dose-dependent studies (Table 2) are final concentrations after addition of HDAC-Glo™ reagent HDAC-Glo™ buffer.

recombinant HDAC8 = target: T1, recombinant HDAC8 (Homo sapiens, UniProt Q9BY41); test: Recombinant HDAC8 inhibition (HDAC-Glo); assay type: biochemical; conditions: for activity at 0.1 µM: 1.0 × 10^−7 M; for activity at 0.2 µM: 2.0 × 10^−7 M; for activity at 0.05 µM: 5.0 × 10^−8 M; for HDAC8 fold selectivity HDAC1: HDAC8 over HDAC1; for HDAC8 fold selectivity HDAC1 / HDAC8 fold selectivity HDAC2 / HDAC8 fold selectivity HDAC3: calculated from IC50 values; for HDAC8 fold selectivity HDAC2: HDAC8 over HDAC2; for HDAC8 fold selectivity HDAC3: HDAC8 over HDAC3
T1 construct: purchased BPS Bioscience
T1 sequence (Q9BY41 1-377): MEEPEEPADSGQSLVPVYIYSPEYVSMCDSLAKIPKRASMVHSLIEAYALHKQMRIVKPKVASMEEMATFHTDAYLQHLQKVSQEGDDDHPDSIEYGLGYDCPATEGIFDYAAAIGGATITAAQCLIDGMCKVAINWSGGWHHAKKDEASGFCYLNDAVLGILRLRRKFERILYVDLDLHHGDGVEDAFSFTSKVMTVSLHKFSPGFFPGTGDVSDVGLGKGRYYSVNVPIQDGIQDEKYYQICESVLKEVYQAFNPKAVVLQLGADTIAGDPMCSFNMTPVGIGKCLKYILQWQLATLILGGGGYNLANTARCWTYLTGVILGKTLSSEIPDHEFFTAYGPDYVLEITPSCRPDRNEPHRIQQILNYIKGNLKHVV
Method: Inhibitory activity with HDAC8 was measured using the following procedure. In a half area 96-well white opaque plate, recombinant HDAC8 (75 ng, BPS Bioscience) was incubated in HDAC-Glo™ buffer (39 μL) with inhibitor in DMSO (1 μL), or DMSO alone (1 μL) as a control, for 15 minutes at room temperature. HDAC-Glo™ reagent (10 μL) was added to each reaction and incubated for 30 min at room temperature. Luminescent signal was measured 30 minutes after adding the substrate reagent using a Geniosplus Fluorimeter (Tecan) at optimal gain. To determine IC50, the luminescent signal was first background corrected with the signal from a background control reaction where no HDAC8 enzyme was added.

HDAC1 = HDAC1 (Homo sapiens, UniProt Q13547); test: ELISA-based HDAC activity assay, HDAC1; conditions: for IC50: read-out: IC50 values (nM) HDAC1
HDAC2 = HDAC2 (Homo sapiens, UniProt Q92769); test: ELISA-based HDAC activity assay, HDAC2; conditions: for IC50: read-out: IC50 values (nM) HDAC2
HDAC3 = HDAC3 (Homo sapiens, UniProt O15379); test: ELISA-based HDAC activity assay, HDAC3; conditions: for IC50: read-out: IC50 values (nM) HDAC3
HDAC6 = target: T2, HDAC6 (Homo sapiens, UniProt Q9UBN7); test: ELISA-based HDAC activity assay, HDAC6; conditions: for HDAC6 fold selectivity HDAC1: HDAC6 over HDAC1; for HDAC6 fold selectivity HDAC1 / HDAC6 fold selectivity HDAC2 / HDAC6 fold selectivity HDAC3: calculated from IC50 values; for HDAC6 fold selectivity HDAC2: HDAC6 over HDAC2; for HDAC6 fold selectivity HDAC3: HDAC6 over HDAC3; for IC50: read-out: IC50 values (nM) HDAC6
T2 sequence (Q9UBN7 1-1215): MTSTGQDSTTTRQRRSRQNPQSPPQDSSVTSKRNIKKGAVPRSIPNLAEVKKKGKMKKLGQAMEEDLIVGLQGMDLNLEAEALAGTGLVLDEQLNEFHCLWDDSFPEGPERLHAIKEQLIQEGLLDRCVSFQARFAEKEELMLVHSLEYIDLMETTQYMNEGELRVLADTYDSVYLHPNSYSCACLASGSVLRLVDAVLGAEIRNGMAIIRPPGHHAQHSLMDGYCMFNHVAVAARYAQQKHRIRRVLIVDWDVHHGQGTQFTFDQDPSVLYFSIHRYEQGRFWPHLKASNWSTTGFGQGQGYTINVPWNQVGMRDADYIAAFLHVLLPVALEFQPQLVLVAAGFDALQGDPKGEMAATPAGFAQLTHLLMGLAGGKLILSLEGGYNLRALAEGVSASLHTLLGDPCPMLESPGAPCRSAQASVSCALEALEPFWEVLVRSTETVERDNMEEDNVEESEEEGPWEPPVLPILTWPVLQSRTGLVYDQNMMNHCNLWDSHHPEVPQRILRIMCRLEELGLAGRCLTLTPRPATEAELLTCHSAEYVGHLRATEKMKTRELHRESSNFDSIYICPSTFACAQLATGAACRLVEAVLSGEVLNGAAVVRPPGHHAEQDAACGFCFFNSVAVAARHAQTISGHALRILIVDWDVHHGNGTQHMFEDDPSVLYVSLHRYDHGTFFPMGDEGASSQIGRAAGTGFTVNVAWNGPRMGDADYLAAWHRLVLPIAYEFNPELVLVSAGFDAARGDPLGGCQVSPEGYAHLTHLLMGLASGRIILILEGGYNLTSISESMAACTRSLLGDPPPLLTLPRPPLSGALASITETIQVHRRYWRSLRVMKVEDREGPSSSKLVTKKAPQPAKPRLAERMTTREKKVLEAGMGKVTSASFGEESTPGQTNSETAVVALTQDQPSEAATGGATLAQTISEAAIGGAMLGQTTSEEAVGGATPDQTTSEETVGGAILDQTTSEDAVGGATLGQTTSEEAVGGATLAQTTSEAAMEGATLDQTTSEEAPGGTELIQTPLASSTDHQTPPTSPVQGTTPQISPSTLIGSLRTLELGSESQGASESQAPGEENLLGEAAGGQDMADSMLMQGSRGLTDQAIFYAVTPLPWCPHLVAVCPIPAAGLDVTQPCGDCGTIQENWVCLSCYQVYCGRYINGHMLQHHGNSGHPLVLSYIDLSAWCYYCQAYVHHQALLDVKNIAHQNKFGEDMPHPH

[2] = read-out: Deacetylase activity (%) HDAC8
[3] = read-out: Deacetylase activity (%) HDAC1
[4] = read-out: Deacetylase activity (%) HDAC2
[5] = read-out: Deacetylase activity (%) HDAC3
[6] = read-out: Deacetylase activity (%) HDAC6

Sequence of HDAC3 (O15379 whole entry): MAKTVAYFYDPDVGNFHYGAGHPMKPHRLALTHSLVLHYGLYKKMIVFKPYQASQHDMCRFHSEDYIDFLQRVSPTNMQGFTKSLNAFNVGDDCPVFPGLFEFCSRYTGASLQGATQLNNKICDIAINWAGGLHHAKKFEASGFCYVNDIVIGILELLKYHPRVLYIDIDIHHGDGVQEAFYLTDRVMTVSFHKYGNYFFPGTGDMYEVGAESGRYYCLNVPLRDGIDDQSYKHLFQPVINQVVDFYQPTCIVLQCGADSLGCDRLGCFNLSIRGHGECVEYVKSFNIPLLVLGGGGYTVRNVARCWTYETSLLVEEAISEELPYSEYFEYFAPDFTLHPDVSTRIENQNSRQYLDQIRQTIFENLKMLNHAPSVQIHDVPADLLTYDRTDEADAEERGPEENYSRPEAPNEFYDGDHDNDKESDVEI
Sequence of HDAC3 (Q9Y618 whole entry partner): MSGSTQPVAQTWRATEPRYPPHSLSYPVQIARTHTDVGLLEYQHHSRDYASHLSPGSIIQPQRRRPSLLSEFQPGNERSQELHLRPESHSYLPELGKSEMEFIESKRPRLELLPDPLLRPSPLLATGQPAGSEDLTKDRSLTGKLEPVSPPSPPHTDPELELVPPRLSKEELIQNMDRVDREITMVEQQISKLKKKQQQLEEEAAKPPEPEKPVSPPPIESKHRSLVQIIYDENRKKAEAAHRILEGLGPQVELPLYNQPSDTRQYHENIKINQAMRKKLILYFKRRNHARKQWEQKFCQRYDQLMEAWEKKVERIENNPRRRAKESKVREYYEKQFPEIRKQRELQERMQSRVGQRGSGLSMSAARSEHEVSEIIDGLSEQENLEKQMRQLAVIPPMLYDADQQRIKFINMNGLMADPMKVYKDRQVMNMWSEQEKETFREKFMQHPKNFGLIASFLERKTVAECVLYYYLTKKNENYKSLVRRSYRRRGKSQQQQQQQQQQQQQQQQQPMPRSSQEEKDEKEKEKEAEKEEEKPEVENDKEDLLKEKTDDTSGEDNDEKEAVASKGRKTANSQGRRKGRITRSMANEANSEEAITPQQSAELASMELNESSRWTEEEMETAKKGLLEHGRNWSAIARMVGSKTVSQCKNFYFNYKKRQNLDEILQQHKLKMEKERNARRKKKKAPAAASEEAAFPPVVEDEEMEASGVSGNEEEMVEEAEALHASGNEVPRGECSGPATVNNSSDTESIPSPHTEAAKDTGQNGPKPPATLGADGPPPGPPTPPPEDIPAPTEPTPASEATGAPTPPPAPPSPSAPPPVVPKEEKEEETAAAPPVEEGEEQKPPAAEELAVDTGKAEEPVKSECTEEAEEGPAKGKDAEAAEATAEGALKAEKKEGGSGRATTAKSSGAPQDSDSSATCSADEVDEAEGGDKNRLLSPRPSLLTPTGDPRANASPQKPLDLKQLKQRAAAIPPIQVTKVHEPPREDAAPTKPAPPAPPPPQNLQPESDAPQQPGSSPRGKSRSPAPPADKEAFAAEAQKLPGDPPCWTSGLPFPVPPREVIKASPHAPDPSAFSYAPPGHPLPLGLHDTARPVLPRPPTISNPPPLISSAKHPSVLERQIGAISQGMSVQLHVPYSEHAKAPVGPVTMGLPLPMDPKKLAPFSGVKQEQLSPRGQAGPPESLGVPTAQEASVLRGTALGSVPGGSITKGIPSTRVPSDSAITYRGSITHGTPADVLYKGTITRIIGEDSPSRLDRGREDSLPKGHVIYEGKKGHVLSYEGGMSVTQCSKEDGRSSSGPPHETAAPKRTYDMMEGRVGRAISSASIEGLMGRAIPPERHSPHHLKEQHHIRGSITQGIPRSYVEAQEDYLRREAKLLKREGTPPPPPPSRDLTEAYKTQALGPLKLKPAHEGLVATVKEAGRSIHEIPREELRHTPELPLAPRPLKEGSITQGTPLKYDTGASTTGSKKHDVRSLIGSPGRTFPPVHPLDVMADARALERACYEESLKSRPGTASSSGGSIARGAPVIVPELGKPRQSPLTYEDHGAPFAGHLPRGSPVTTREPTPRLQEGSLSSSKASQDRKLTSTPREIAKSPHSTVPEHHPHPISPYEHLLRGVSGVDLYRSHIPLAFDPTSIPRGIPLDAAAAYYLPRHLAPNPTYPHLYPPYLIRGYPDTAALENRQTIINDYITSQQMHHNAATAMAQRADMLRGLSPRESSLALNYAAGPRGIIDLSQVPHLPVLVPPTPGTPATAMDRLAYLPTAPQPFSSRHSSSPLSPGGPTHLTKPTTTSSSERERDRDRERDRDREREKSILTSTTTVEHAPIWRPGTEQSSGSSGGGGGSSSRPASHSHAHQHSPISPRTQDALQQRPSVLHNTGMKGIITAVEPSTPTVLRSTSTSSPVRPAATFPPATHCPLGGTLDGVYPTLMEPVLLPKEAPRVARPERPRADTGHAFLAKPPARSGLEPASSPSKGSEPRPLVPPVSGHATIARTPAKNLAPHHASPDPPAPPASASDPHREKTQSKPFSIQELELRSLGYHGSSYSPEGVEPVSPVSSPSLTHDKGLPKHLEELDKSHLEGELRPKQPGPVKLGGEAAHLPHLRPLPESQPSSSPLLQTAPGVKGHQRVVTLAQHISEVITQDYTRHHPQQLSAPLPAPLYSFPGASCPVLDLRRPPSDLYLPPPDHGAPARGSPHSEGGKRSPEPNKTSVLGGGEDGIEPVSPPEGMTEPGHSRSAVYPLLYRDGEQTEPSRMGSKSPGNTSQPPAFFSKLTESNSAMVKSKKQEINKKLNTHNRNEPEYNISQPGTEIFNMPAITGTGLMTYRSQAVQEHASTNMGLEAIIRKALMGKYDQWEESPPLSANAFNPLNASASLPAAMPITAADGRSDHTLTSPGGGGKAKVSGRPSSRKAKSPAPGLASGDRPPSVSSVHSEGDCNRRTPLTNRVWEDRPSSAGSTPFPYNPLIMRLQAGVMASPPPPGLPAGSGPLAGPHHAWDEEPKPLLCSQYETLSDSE
Sequence of HDAC2 (Q92769 whole entry): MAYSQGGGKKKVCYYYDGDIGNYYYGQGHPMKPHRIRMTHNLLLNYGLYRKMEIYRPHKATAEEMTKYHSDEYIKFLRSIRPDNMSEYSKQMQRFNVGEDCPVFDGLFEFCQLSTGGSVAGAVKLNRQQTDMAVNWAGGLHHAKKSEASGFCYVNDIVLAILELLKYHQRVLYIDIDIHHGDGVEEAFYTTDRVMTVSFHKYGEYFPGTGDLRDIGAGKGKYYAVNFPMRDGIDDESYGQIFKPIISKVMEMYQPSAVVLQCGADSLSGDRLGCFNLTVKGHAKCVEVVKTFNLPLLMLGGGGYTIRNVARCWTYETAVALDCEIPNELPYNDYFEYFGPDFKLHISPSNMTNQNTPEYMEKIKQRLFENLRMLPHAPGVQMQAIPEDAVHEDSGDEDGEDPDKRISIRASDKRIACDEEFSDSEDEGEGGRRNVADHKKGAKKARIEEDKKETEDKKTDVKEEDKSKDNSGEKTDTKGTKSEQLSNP
Sequence of HDAC1 (Q13547 whole entry): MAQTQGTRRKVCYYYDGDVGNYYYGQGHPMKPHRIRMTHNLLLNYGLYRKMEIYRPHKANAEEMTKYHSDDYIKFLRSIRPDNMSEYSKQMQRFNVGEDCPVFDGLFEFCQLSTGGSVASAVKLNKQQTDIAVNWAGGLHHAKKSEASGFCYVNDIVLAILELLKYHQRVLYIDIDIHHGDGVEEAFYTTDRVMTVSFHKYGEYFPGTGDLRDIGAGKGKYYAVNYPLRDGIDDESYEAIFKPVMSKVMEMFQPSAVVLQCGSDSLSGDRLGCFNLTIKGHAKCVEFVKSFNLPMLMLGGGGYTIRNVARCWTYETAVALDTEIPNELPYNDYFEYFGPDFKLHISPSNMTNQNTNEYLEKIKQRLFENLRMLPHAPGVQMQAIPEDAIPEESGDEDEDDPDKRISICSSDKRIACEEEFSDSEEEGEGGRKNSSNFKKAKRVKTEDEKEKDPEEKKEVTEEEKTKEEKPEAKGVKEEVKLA

CC(CCCC(=O)Nc1ccccc1)CCC(=O)NO (racemic) [Compound 1a, N^1-hydroxy-4-methyl-N^8-phenyloctanediamide]
Deacetylase activity (%) ([1]; 1.0 × 10^−5 M): 17 ± 2%
Deacetylase activity (%) ([1]; 1.25 × 10^−6 M): 79 ± 3%
Deacetylase activity (%) ([1]; 5.0 × 10^−6 M): 38 ± 4%
Deacetylase activity (%) ([1]; 6.25 × 10^−6 M): 91 ± 2%
IC50 ([1]; HeLa cell lysates): 3.3 µM
fold less potent than SAHA ([1]; HeLa cell lysates, compared to parent SAHA): 18 fold
Deacetylase activity (%) ([1]; […] 10^−6 M): 60 ± 3%

CCCCCCC(CCCC(=O)Nc1ccccc1)CCC(=O)NO (single isomer, unassigned) [Compound 1e, 4-hexyl-N^1-hydroxy-N^8-phenyloctanediamide]
Deacetylase activity (%) ([1]; 1.0 × 10^−4 M): 32 ± 1%
Deacetylase activity (%) ([1]; 1.25 × 10^−5 M): 104 ± 1%
Deacetylase activity (%) ([1]; 2.0 × 10^−4 M): 15 ± 1%
Deacetylase activity (%) ([1]; 5.0 × 10^−5 M): 57 ± 2%
IC50 ([1]; HeLa cell lysates): 65 ± 6 µM
Deacetylase activity (%) ([1]; […] 10^−5 M): 88 ± 1%

O=C(CC[C@@H](CCCC(=O)Nc1ccccc1)Cc1ccccc1)NO [(R)-1f, (R)-4-benzyl-N^1-hydroxy-N^8-phenyloctanediamide]
IC50 (recombinant HDAC8): 27 nM
activity at 0.1 µM (recombinant HDAC8; [2]): 22 ± 1%
activity at 0.0125 µM (recombinant HDAC8; 1.25 × 10^−8 M, read-out: Deacetylase activity (%) HDAC8): 64 ± 2%
activity at 0.2 µM (recombinant HDAC8; [2]): 16 ± 1%
activity at […] (recombinant HDAC8; 2.5 × 10^−8 M, read-out: Deacetylase activity (%) HDAC8): 56 ± 4%
activity at 0.05 µM (recombinant HDAC8; [2]): 37 ± 3%
HDAC8 fold selectivity HDAC1 (recombinant HDAC8): 260 fold
HDAC8 fold selectivity HDAC2 (recombinant HDAC8): 330 fold
HDAC8 fold selectivity HDAC3 (recombinant HDAC8): 240 fold
activity at 5 µM (HDAC1; [3]): 88 ± 4%
activity at 10 µM (HDAC1; [3]): 72 ± 3%
activity at 20 µM (HDAC1; [3]): 53 ± 6%
activity at 40 µM (HDAC1; [3]): 38 ± 3%
activity at 80 µM (HDAC1; [3]): 24 ± 2%
IC50 (HDAC1): 25000 nM
activity at 5 µM (HDAC2; [4]): 96 ± 1%
activity at 10 µM (HDAC2; [4]): 83 ± 5%
activity at 20 µM (HDAC2; [4]): 71 ± 4%
activity at 40 µM (HDAC2; [4]): 43 ± 5%
activity at 80 µM (HDAC2; [4]): 29 ± 1%
IC50 (HDAC2): 36000 nM
activity at 5 µM (HDAC3; [5]): 89 ± 2%
activity at 10 µM (HDAC3; [5]): 77 ± 2%
activity at 20 µM (HDAC3; [5]): 54 ± 4%
activity at 40 µM (HDAC3; [5]): 39 ± 2%
activity at 80 µM (HDAC3; [5]): 25 ± 2%
IC50 (HDAC3): 27000 nM
HDAC6 fold selectivity HDAC1 (HDAC6): 420 fold
HDAC6 fold selectivity HDAC2 (HDAC6): 540 fold
HDAC6 fold selectivity HDAC3 (HDAC6): 390 fold
activity at 0.0125 µM (HDAC6; [6]): 67 ± 4%
activity at 0.05 µM (HDAC6; [6]): 57 ± 5%
activity at 0.1 µM (HDAC6; [6]): 37 ± 6%
activity at 0.2 µM (HDAC6; [6]): 26 ± 4%
activity at […] (HDAC6; [6]): 59 ± 8%
IC50 (HDAC6): 48 nM

O=C(CC[C@H](CCCC(=O)Nc1ccccc1)Cc1ccccc1)NO [(S)-1f, (S)-4-benzyl-N^1-hydroxy-N^8-phenyloctanediamide]
IC50 (recombinant HDAC8): 150 nM
activity at 0.1 µM (recombinant HDAC8; [2]): 61 ± 3%
activity at 0.2 µM (recombinant HDAC8; [2]): 42 ± 2%
activity at 0.4 µM (recombinant HDAC8; 4.0 × 10^−7 M, read-out: Deacetylase activity (%) HDAC8): 28 ± 1%
activity at 0.05 µM (recombinant HDAC8; [2]): 75 ± 6%
activity at 0.8 µM (recombinant HDAC8; 8.0 × 10^−7 M, read-out: Deacetylase activity (%) HDAC8): 19 ± 1%
HDAC8 fold selectivity HDAC1 (recombinant HDAC8): 930 fold
HDAC8 fold selectivity HDAC2 (recombinant HDAC8): 1300 fold
HDAC8 fold selectivity HDAC3 (recombinant HDAC8): 1000 fold
activity at 10 µM (HDAC1; [3]): 84 ± 7%
activity at 20 µM (HDAC1; [3]): 68 ± 3%
activity at 40 µM (HDAC1; [3]): 50 ± 3%
activity at 80 µM (HDAC1; [3]): 32 ± 2%
activity at 160 µM (HDAC1; [3]): 17 ± 1%
IC50 (HDAC1): 40000 nM
activity at 10 µM (HDAC2; [4]): 87 ± 5%
activity at 20 µM (HDAC2; [4]): 74 ± 3%
activity at 40 µM (HDAC2; [4]): 56 ± 3%
activity at 80 µM (HDAC2; [4]): 37 ± 6%
activity at 160 µM (HDAC2; [4]): 22 ± 2%
IC50 (HDAC2): 51000 nM
activity at 10 µM (HDAC3; [5]): 76 ± 5%
activity at 20 µM (HDAC3; [5]): 67 ± 4%
activity at 40 µM (HDAC3; [5]): 48 ± 2%
activity at 80 µM (HDAC3; [5]): 33 ± 4%
activity at 160 µM (HDAC3; [5]): 15 ± 2%
IC50 (HDAC3): 37000 nM
HDAC6 fold selectivity HDAC1 (HDAC6): 520 fold
HDAC6 fold selectivity HDAC2 (HDAC6): 750 fold
HDAC6 fold selectivity HDAC3 (HDAC6): 560 fold
activity at 0.05 µM (HDAC6; [6]): 64 ± 4%
activity at 0.1 µM (HDAC6; [6]): 48 ± 7%
activity at 0.2 µM (HDAC6; [6]): 37 ± 7%
activity at 0.4 µM (HDAC6; [6]): 17 ± 6%
activity at 0.8 µM (HDAC6; [6]): 16 ± 6%
IC50 (HDAC6): 95 ± 9 nM
